Experimental data reported in patent publication US20240307346A1, “METHOD FOR TREATING OR PREVENTING A DISEASE OF INCOMPLETE IMMUNE RECONSTITUTION IN AIDS USING (5R)-5-HYDROXYTRIPTOLIDE” (PEKING UNION MEDICAL COLLEGE HOSPITAL, priority 2018, published 2024).
Converted amounts (≈) assume the structure as drawn.

What was measured:
[1] = system: NF-κB; assay: NF-κB luciferase reporter (p3κB-luc) assay in HEK293T cells; assay type: cell-based; conditions: for inhibition of the activity of the NF-κB signal pathway activated by TNF-α / inhibition of the activity of the background NF-κB signaling pathway: Comparative Example 2, HEK293T, FIG. 5; for inhibition of the activity of the NF-κB signal pathway activated by TNF-α: TNF-α 20 ng/ml; for inhibition of the activity of the background NF-κB signaling pathway: no TNF-α
Procedure: NF-κB driven […] expression plasmid (p3κB-luc, 100 ng) and internal reference plasmid pBgal (purchased from Bioonline: www.bioon.com.cn) (pSV-β-Galactosidase Control Vector, β-galactosidase expression plasmid, 5 ng) were transfected into HEK293T cells (purchased from ATCC). […] After another 24 hours, all cells were collected and lysed with reporter lysis buffer (purchased from Promega). Luciferase assay system (Promega) was used to detect luciferase activity. Beta-Glo Asaay system (Promega) was used to detect β-Galactosidase activity, and the inhibition effects of T8 on NF-κB activity was analyzed.
The NF-κB reporter gene plasmid p3κB-luc was transfected into HEK293T cells for expression, and pSV-β-Galactosidase Control Vector was co-transfected as transfection internal reference. The activation of NF-κB was induced by TNF-α treatment. T8 and triptolide were added respectively. The expression of NF-κB reporter gene was indicated by detecting luciferase activity, and the effect of T8 and triptolide on NF-κB activation induced by TNF-α was evaluated.
Cell transfection: HEK293T cells were transfected with lipofectamine 2000 Transfection Reagent according to the reagent instructions. 100 ng of plasmid was transfected with 1 μL of transfection reagent into each well of a 24-well cell cultureplate. The plasmid and the transfection reagent were diluted with […] of OPTI-MEM medium, respectively and then mixed together. The mixture was allowed to stand at room temperature for 5 minutes, and then added into the cells in each well. The resulting mixture was mixed gently, placed back into the 37° C. incubator, and the cells were cultured for a specified time.
Luciferase activity detection: NF-κB reporter gene plasmid p3κB-luc plasmid (100 ng), internal reference plasmid pSV-β-Galactosidase Control Vector (5 ng) were transfected into HEK293T cells. After 24 hours. TNF-α (20 ng/ml) was added (or not added) to stimulate the cells for 24 hours, and then the cells were collected and lysed with reporter lysis buffer. Luciferase assay system was used to detect luciferase activity. and Beta-Glo Asaay system was used to detect β-Galactosidase activity.

[2] = system: CD4+T-cells; assay: CFSE proliferation of CD4+T-cells in PHA-P stimulated PBMC; assay type: cell-based, human; conditions: for inhibition of the proliferation of CD4+T-cells in healthy human peripheral blood: Comparative Example 4, PHA-P 5 μg/mL, 100 ng/mL, 72 hours, FIG. 7
Procedure: Healthy human peripheral blood mononuclear cells (PBMC) (purchased from ATCC) were cultured in RPMI-1640/10% FBS serum medium containing IL-2 (20IU). and then stained with CFSE (carboxyfluorescein diacetate succinimidy ester) (10 nM) at 37° C. for 10 minutes, washed twice with the above medium, followed by addition of PHA-P (phytohemagglutinin P) (5 μg/mL) to stimulate cell proliferation with or without addition of T8 compound (100 nM).
The cells were washed with the medium twice, PHA-P (5 μg/mL) was added, and the test compound T8 or triptolide (100 ng/mL each) was added at the same time. After 72 hours at 37° C. the cells were collected, stained with anti-CD4-PE antibody at 4°° C. for 30 minutes, and washed with FACS buffer twice. The cell proliferation was analyzed by flow cytometry.

[3] = MTT cytotoxicity test; assay type: cell-based; conditions: human, HEK293T cells, read-out: CC50 (50% Cytotoxic Concentration)
Procedure: MTT colorimetric method was used to detect the cytotoxicity. HEK293T cells were seeded into 96-well plates (1×10^4/100 μL/well), 100 μL of each concentration of the compounds (compound concentration refers to the figures) was added in triplicate. Control wells without compound were setting at the same time. The cells were incubated in a 37° C. 5% CO2 cell incubator for 72 hours. 100 μL of the supernatant was aspirated from each well and discarded, followed by addition of 20 μL of MTT solution (5 mg/mL) into the wells. […] The absorbance was measured at 595 nm. The CC50 value (50% Cytotoxic Concentration) was calculated, i.e., the concentration of the compound required for producing toxicity on 50% of HEK293T cells.

[4] = system: CD4 counts; assay: Phase II placebo-controlled trial in HIV immunological non-responders: CD4 counts; assay type: in vivo, human; conditions: for participants with a CD4 count increase over 50 cells/mm^3: placebo 34.6%; for mean absolute increase of CD4 count from baseline: week 48, placebo 32; for CD4 count at Week 48: FAS, with ART
[5] = system: interferon-γ-induced protein 10 (IP-10); assay: Phase II trial: serum IP-10; assay type: in vivo, human; set-up: mean change of serum interferon-γ-induced protein 10: unit not given here; conditions: placebo −22.8; for mean change of serum IP-10 level: Week 48
Procedure: (§1) The phase II, double-blind, randomized, placebo-controlled trial was conducted in adults patients with long-term suppressed HIV infection and suboptimal CD4 recovery, at nine hospitals in China.
(§2) The patients were 1:1:1 assigned to receive oral T8 0.5 mg or 1 mg daily, or placebo combined with antiretroviral therapy for 48 weeks. All study staff and participants were masked. The study drug was recommended to be taken in the morning on an empty stomach, and be separated from participants' daily ART. Participants were followed and assessed at Week 4, 12, 24, 36 and 48 of treatment. On each scheduled visit, the investigator would assess the participant's general status, newly-onset symptoms and signs, and adverse events.
(§3) The primary endpoints of the study included 1) Absolute change of CD4 counts from baseline to week 48: 2) Proportions of participants achieving a CD4 increase ≥50 cells/mm^3 from baseline to week 48: and 3) changes of selected inflammatory markers from baseline to week 48, including interferon-y-induced protein 10 (IP-10), high-sensitivity C-reactive protein (hsCRP), and IL-6.
The primary efficacy differences between treatments on CD4 counts and inflammatory marker level were assessed through the t-test and analysis of covariance (ANCOVA) model. The ANCOVA model, including the baseline CD4 counts as the covariate, study group and center as fixed factors, generated the Least square means (LSMEANs) and relative 95% confidence interval (95% CI) in both FAS and PPS.

[6] = system: high-sensitivity C-reactive protein (hsCRP); assay: Phase II trial: hsCRP; assay type: in vivo, human; conditions: 1 mg daily (HT8), Week 48
Procedure: as §1, §2, §3

[7] = system: IL-6; assay: Phase II trial: IL-6; assay type: in vivo, human; conditions: 1 mg daily (HT8), Week 48
Procedure: as §1, §2, §3

[8] = system: CD8 T cells; assay: Phase II trial: cellular activation of CD8 T cells (CD38, HLA-DR); assay type: in vivo, human; conditions: among the three groups (0.5 mg, 1 mg, placebo), 62 participants
Procedure: T-cell subsets were measured using CytoFlex flow cytometer (Beckman Coulter Life Science) at participating centers, including T cells (CD45+CD3+), CD4 T cells (CD45+CD3+CD4+), and CD8 T cells (CD45+CD3+CD8+). In PUMCH Lab. exploratory CD8 markers (CD45+CD3+CD8+CD38+ and CD45+CD3+CD8+HLA-DR+) were further measured for participants in three Beijing centers.

[9] = Phase II trial: safety (adverse events); assay type: in vivo, human; conditions: for participants with treatment-emergent adverse events (TEAEs): placebo 80.7%
Procedure: as §2
Safety endpoints included occurrence of adverse events (AEs) and serious adverse events (SAEs) over the study period. Adverse events included those related to the study drug; all serious adverse events; and abnormal laboratory test values at each study visit.
The efficacy analysis was based on the full analysis set (FAS), which included all randomized patients with at least one posttreatment efficacy assessment, and the per-protocol set (PPS), which included patients who completed the study with proper study drug exposure and without any major protocol violations. The safety analysis was based on the safety analysis set (SAS), which included all randomized patients who received at least one dose of study drug. All safety results were descriptive, listed and summarized.

[10] = system: HIV-1; assay: Phase II trial: plasma HIV-1 viral load; assay type: in vivo, human; conditions: all participants, with ART, 48 weeks
Procedure: Plasma HIV-1 viral load was measured at Peking Union Medical College Hospital (PUMCH) Lab by COBAS AmpliPrep/COBAS TaqMan V2.0 RT-PCR (Roche). The lower detection limit is 20 copies per milliliter.

[11] = system: CD4+T-cell subsets; assay: Activation of CD4+T-cell subsets (CD38, HLA-DR expression by flow cytometry); conditions: for inhibition of immune activation of CD4+T-cell subsets by PMA+Ionomycin (CD38, HLA-DR): Comparative example 3, PMA 100 nM + Ionomycin 1 μM, 100 ng/ml; for inhibition of immune activation of CD4+T-cell subsets by PMA+Ionomycin (CD38, HLA-DR) / inhibition of immune activation of CD4+T-cell subsets by anti-CD3/CD28 antibody (CD38, HLA-DR): 72 hours; for inhibition of immune activation of CD4+T-cell subsets by anti-CD3/CD28 antibody (CD38, HLA-DR): Comparative example 3, isolated CD4+T-cells, anti-CD3/CD28 beads
Procedure: After 48 hours, the cells were stained with anti-human CD4, CD38, HLA-DR flow cytometry antibody (purchased from Invitrogen), and the CD4^+T-cells were gated by flow cytometry to detect the expression of CD38, HLA-DR molecules on the cell surface.
Freshly isolated healthy human PBMC (3×10^7 cells) were cultured in cell culture medium containing IL-2 (20 IU/mL), stimulated with PMA (100 nM) and Ionomycin (1 μM) for 72 hours, and the compound to be tested (100 ng/ml) was added at the same time: the cells were washed twice with FACS buffer, followed by addition of anti CD3-PerCP, CD4-PE, CD38-PE-Cy7. HLA-DR-APC antibodies, stained for 30 minutes at 4° C.: the cells were washed twice with FACS buffer, and the expression of the above molecules was detected by FACS.
CD4^+T-cells were isolated from freshly isolated healthy human PBMCs with anti-CD4 antibody-coated magnetic beads through positive screening and then cultured in a medium containing IL-2 (20 IU/mL). The cell activation was stimulated with anti-CD3/CD28 antibody-coated magnetic beads for 72 hours, and the compound to be tested was added at the same time. The cells were collected, washed twice with FACS buffer, followed by addition of anti CD3-PerCP, CD4-PE, CD38-PE-Cy7, HLA-DR-APC antibodies, stained at 4° C. for 30 minutes: the cells were washed twice with FACS buffer and collected, and the expression of the above molecules was detected by flow cytometry.

## CC(C)[C@]12O[C@H]1[C@@H]1O[C@]13[C@]1(O[C@H]1C[C@@]1(O)C4=C(CC[C@]31C)C(=O)OC4)[C@@H]2O [T8, (5R)-5-hydroxytriptolide]
[1]
  inhibition of the activity of the NF-κB signal pathway activated by TNF-α: effectively inhibit
  inhibition of the activity of the background NF-κB signaling pathway: effectively inhibit
[1]; Example 1, HEK293T, 100 nM, 24 h, FIG. 1
  inhibition of background NF-κB activity (untreated with TNF-alpha): effectively inhibit
[1]; Example 1, HEK293T, TNF-alpha 20 ng/mL, 100 nM, 24 h, FIG. 1
  inhibition of NF-κB activity stimulated by TNF-alpha: effectively inhibit
[2]
  inhibition of the proliferation of CD4+T-cells in healthy human peripheral blood: significantly inhibit
[2]; Example 2, PBMC, PHA-P 5 μg/mL, 100 nM, 48 h, without compound 16.6%
  proliferation of CD4+T cells stimulated by PHA (cell proliferation): 1.9%
[3]
  CC50 at 72 h: ~0.435 µg/mL (≈ 1.16 µM)
[4]; 0.5 mg daily (LT8), Week 48
  participants with a CD4 count increase over 50 cells/mm^3: 45.1%
[4]; 0.5 mg daily (LT8)
  mean absolute increase of CD4 count from baseline: 49 cells/mm^3
[4]; 1 mg daily (HT8) over placebo
  CD4 increase in participants with a baseline CD4 count 200-350 cells/mm^3: consistent superiority
[4]; 1 mg daily (HT8), Week 48
  participants achieving a CD4 increase >20% (superiority): unremarkable
  participants with a CD4 count increase over 50 cells/mm^3: 50%
[4]; 1 mg daily (HT8), week 24, versus other groups
  participants achieving a CD4 increase >20%: more participants
[4]; 1 mg daily (HT8)
  mean absolute increase of CD4 count from baseline: 63 cells/mm^3
[4]; 1 mg daily, 48 weeks, placebo 20
  mean increase of CD4 count in participants over 45 years old: 96 cells/mm^3
[4]; 0.5 mg daily oral (LT8), 48 weeks
  CD4 count at Week 48: 299 cells/mm^3
[4]; 1 mg daily oral (HT8), 48 weeks
  CD4 count at Week 48: 303 cells/mm^3
[4]; Week 48
  effect on CD4 in participants with a baseline CD4 count below 200 cells/mm^3: insignificant
[4]; Week 48, between the three groups (0.5 mg, 1 mg, placebo)
  changes of CD4/CD8 ratio: comparable
[4]; high-dose (1 mg), stratified analysis
  benefit in CD4 counts in participants receiving SARS-COV-2 vaccination: insignificant
[5]; 0.5 mg daily (LT8)
  mean change of serum IP-10 level: -42.5 pg/mL
[5]; 1 mg daily (HT8), 48 weeks
  mean change of serum interferon-γ-induced protein 10: −72.1
[5]; 1 mg daily (HT8)
  mean change of serum IP-10 level: -72.1 pg/mL
[6]
  change of HsCRP: slight decrease
[7]
  change of IL-6: slight decrease
[8]
  surface expressions of CD38 or HLA-DR on CD8 T cells: comparable
[9]; 0.5 mg daily (LT8), 48 weeks
  participants with treatment-emergent adverse events (TEAEs): 84.3%
[9]; 0.5 mg or 1 mg daily, 48 weeks
  drug-related SAEs: No drug-related SAEs were reported
[9]; 0.5 mg or 1 mg daily, all participants
  tolerability: well-tolerated
[9]; 1 mg daily (HT8), 48 weeks
  participants with treatment-emergent adverse events (TEAEs): 89.1%
[9]; 1 mg daily (HT8), mostly neutrophil decrease and dyslipidemia
  TEAEs ≥Grade 3: slightly more frequent
[10]
  virological suppression during the study: virologically-suppressed
[11]
  inhibition of immune activation of CD4+T-cell subsets by PMA+Ionomycin (CD38, HLA-DR): significantly inhibit
  inhibition of immune activation of CD4+T-cell subsets by anti-CD3/CD28 antibody (CD38, HLA-DR): significantly inhibit
[11]; Example 3, PBMC, PMA 20 nM + Ionomycin 1 μM, 100 nM, 48 h, without compound 36.3%
  HLA-DRCD4/CD4: 3.5%
[11]; Example 3, PBMC, PMA 20 nM + Ionomycin 1 μM, 100 nM, 48 h, without compound 41.6%
  CD38CD4/CD4: 31%

## CC(C)[C@]12O[C@H]1[C@@H]1O[C@]13[C@]1(O[C@H]1C[C@H]1C4=C(CC[C@@]13C)C(=O)OC4)[C@@H]2O [triptolide]
[1]
  inhibition of the activity of the NF-κB signal pathway activated by TNF-α: effectively inhibit
  inhibition of the activity of the background NF-κB signaling pathway: effectively inhibit
[2]
  inhibition of the proliferation of CD4+T-cells in healthy human peripheral blood: significantly inhibit
[3]
  CC50 at 72 h: ~0.017 µg/mL (≈ 0.0472 µM)
[11]
  inhibition of immune activation of CD4+T-cell subsets by PMA+Ionomycin (CD38, HLA-DR): significantly inhibit
  inhibition of immune activation of CD4+T-cell subsets by anti-CD3/CD28 antibody (CD38, HLA-DR): significantly inhibit
